Data published in publication PMC9848259 (Journal of Enzyme Inhibition and Medicinal Chemistry, 2023).

Assays:
[1] = target: T1, BuChE (from equine serum) (Equus caballus, UniProt P81908); test: biochemical
T1 construct: purchased Sigma Aldrich; host or cells: equine serum
Experimental: The capacity of the novel cyclopentaquinoline hybrids to inhibit AChE (from the electric eel) and BuChE (from equine serum) were determined by the modified colorimetric Ellman’s method[38]^,[39]. Both enzymes, DTNB – Ellman’s reagent (5,5′-dithiobis-(2-nitrobenzoic acid)), acetyltiocholine iodide (ATCI) were obtained from Sigma Aldrich. AChE and BuChE samples in phosphate buffer (PBS) pH 8.0 were incubated in 96-well plates in the presence of the substrate (ATCI), 76 µl of DTNB and the tested compound at various concentration at room temperature for 10 min (AChE) or eight minutes (BuChE).

[2] = test system: SH-SY5Y cells; test: Neuroprotection against H2O2-induced oxidative stress, MTT test; assay type: cell-based, human; details: H2O2 100 µM
[3] = target: T2, ACHE and BACE-1A (Homo sapiens, UniProt P22303+P56817); test: Yeast three-hybrid (Y3H) assay with β-galactosidase readout; assay type: cell-based, Saccharomyces cerevisiae; details: 10 µM ligand
T2 construct: the prepared pGBKT7-hACHE plasmid contained the cDNA fragment encoding for aa 52–577; obtained from the extracellular, N-terminal domain (aa 46–457) of BACE1A (GenBank: AF204943.1); host or cells: Saccharomyces cerevisiae Y2HGold (bait) mated with Y187 (prey)
T2 sequence (P22303 52-577): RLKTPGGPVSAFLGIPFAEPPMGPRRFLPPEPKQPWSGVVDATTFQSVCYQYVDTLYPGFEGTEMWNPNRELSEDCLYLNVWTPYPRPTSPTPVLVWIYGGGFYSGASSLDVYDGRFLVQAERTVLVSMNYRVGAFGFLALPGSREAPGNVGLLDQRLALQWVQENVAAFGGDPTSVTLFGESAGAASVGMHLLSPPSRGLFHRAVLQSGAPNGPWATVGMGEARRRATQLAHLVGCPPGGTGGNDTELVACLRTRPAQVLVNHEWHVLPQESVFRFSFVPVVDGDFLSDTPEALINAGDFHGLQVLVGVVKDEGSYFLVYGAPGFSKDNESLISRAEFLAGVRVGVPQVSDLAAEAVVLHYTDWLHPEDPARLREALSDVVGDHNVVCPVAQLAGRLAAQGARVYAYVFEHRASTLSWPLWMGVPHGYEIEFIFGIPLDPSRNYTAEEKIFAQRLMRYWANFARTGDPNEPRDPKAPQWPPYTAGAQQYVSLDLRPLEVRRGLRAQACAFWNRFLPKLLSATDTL
T2 sequence (P56817 46-457): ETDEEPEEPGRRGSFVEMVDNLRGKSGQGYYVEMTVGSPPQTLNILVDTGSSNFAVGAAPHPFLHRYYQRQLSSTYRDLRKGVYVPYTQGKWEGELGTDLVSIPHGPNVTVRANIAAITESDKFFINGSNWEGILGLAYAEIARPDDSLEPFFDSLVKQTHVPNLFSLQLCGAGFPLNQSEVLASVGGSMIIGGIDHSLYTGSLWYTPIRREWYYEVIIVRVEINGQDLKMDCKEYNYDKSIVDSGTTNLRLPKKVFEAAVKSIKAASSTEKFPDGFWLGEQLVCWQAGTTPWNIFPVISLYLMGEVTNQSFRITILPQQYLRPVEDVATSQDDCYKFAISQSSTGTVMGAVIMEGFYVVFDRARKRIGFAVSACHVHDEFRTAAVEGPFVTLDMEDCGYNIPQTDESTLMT
Experimental: The Y3H method was used to analyse the possible hybrid-ligand induced interactions between five selected proteins. […]. Yeast codon optimisation was performed to facilitate high expression of human recombinant proteins in Saccharomyces cerevisae. The fragments for the signal peptide (aa 1–51) and domain responsible for protein tetramerization (aa 578–611) were obtained from the cDNA encoding for human ACHE (GenBank M55040.1). Therefore, the prepared pGBKT7-hACHE plasmid contained the cDNA fragment encoding for aa 52–577. […]
The yeast ẞ-galactosidase microplate assay protocol (stopped) was used to evaluate the ẞ-galactosidase activity in the yeast culture according to the manufacturer’s instructions. […] Optical density was measured at 660 nm and absorbance at 420 nm by a Synergy H1 spectrophotometer (Biotek). In the quantitative ẞ-galactosidase assay, the hybrid ligand 3e was used. […]

[4] = target: T3, Aβ42 (Homo sapiens, UniProt P05067); test: In cellulo β-amyloid assay, Th-S fluorescence in E. coli over-expressing Aβ42; assay type: cell-based, Escherichia coli; details: read-out: anti-amyloid (inhibition) capacity for Aβ42
T3 construct: expressed in transfected cells; host or cells: Escherichia coli BL21 (DE3), pET vector
T3 sequence (P05067 672-713): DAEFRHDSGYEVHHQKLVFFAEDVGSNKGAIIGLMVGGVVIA
Experimental: Inhibition assay in Escherichia coli cells over-expressing amyloid proteins. […] Escherichia coli competent cells BL21 (DE3) were transformed with the required pET vectors carrying the DNA sequence of Aβ42 peptide. Because of the addition of the initiation codon ATG in front of genes, the over-expressed Aβ42 contains an additional methionine residue at their N terminus. For overnight culture preparation, a colony of BL21 (DE3) bearing the plasmid to be expressed was inoculated in 10 ml of M9 minimal medium containing 50 μg/ml of kanamycin at 37 °C. […] The bacterial culture was then grown at 37 °C, with orbital agitation of 250 rpm. When the cell density reached OD600nm–0.6, 980 μL of the culture were transferred into 1.5 ml conical tubes containing 10 μL of the compound to be tested dissolved in DMSO, and 10 μL of 100 mM isopropyl 1-thio-β-D-galactopyranoside (IPTG). The final concentration of the compound was set to 10 μM. The samples were grown overnight at 37 °C under agitation at 1400 rpm, using a Thermomixer (Eppendorf, Hamburg, Germany). […]
The fluorescence normalisation was carried out considering as 100% the Th-S fluorescence of the bacterial cells expressing Aβ42 in the absence of drug, and 0% the Th-S fluorescence of the bacterial cells non-expressing Aβ42 (in absence of the protein production inductor, IPTG). […]

[5] = LogP assay (RP-HPLC); assay type: physicochemical; details: pH 11 mobile phases, read-out: logP Experimental
Experimental: Methanol (POCH) was used as an organic modifier. Demineralised water was purified in our faculty. The methanol and water solution were set at pH 11 using 30 mM Triethylamine (TEA) (Sigma Aldrich). Ten isocratic mobile phases were used in the calibration and assay. The first mobile phase contained 50% methanol solution with 30 mM TEA and 50% water solution with 30 mM TEA. Each subsequent mobile phase contained 5% more methanol solution: the final mobile phase consisted of […] solution mix. The method required uncharged substances to be used during analysis.
These substances were selected on the basis of their structural similarity to the test compounds. The stock solutions contained about 1 mg/ml of calibration compounds or test compounds. The injection concentration was 100 µg/ml, and the injection volume was 7 µl.
A Waters 600 HPLC system was used with a photodiode array detector (PDA). The detector was set at the respective optimum absorption wavelength for each compound. The system used an Xbridge C18 50 mm × 4.6 mm i.d., 3.5 µm, chromatographic column (Waters). Data acquisition and processing were performed on Waters Millennium software.
The assay was performed according to Chao Liang et al. with modification. […]
Test compound was eluted by all mobile phases. […] The logP value was read from the calibration curve. […]

T1 sequence (P81908 whole entry): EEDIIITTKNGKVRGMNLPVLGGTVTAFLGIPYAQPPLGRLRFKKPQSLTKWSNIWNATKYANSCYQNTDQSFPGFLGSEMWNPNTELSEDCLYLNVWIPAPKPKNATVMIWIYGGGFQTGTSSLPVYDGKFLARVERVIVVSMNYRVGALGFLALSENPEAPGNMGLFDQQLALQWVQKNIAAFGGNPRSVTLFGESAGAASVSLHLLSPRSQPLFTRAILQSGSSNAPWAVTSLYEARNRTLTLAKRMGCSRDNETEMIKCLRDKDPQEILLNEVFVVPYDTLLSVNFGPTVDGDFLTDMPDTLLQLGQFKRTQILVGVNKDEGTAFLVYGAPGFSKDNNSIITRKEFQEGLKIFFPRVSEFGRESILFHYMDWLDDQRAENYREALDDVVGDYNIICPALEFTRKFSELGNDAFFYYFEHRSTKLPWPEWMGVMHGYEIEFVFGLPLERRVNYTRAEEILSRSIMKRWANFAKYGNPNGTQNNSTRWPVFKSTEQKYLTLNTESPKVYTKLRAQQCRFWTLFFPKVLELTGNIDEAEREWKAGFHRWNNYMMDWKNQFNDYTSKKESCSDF

SMILES: O=C(NCCCCCCNc1c2c(nc3ccccc13)CCC2)c1cc(Cl)cc(Cl)c1 [Compound 3e]
- Selectivity for BuChE ([1]; IC50(AChE)/IC50(BuChE)): 1.13
- IC50 ([1]; means ± SD of three experiments): 116 ± 6 nM
- % neuroprotection ([2]; compound 0.01 µM): 40.04%
- % neuroprotection ([2]; compound 0.1 µM): 79.34%
- % neuroprotection ([2]; compound 1 µM): 71%
- β-galactosidase activity (strength of interaction) ([3]; 96 h, triplicate): 206.37 ± 4.85 units
- hybrid ligand-mediated interaction of ACHE-BACE-1A protein pair (blue colonies) ([3]; DDO and QDO/X/A plates): yielded blue colonies
- inhibition at 10 µM [4]: 52.4%
- chromatographic logP [5]: 5.44
